Assay results from PMC11702115 (BMC Biology, 2025).

Assays:
[1] = biological target: T1, HarmOR52 (with HarmOrco) (Helicoverpa armigera, UniProt A0A7T3KAH2); experiment: two-electrode voltage clamp, Xenopus oocytes; assay type: cell-based; conditions: agonist; Orco co-expressed; 100 uM screen, dose series; -80 mV, pH 7.6
T1 sequence (A0A7T3KAH2 1-419): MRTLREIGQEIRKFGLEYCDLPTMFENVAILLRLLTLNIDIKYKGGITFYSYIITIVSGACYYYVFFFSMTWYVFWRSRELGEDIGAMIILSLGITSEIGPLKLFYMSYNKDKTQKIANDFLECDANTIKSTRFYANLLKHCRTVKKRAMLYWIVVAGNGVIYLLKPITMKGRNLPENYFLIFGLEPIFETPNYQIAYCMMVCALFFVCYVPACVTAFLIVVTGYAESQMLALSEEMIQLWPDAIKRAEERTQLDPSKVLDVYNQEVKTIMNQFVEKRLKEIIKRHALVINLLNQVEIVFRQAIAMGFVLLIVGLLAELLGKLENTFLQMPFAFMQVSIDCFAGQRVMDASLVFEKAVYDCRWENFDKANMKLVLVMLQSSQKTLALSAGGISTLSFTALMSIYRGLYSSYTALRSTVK

[2] = biological target: OfurIR75/OfurIR8a (Ostrinia furnacalis, UniProt A0A0F7QIG0); experiment: two-electrode voltage clamp, Xenopus oocytes; assay type: cell-based; conditions: agonist, IR8a co-expressed, 10 uM screen, -80 mV, pH 7.6
Chain of OfurIR75/OfurIR8a (A0A0F7QIG0 19-626): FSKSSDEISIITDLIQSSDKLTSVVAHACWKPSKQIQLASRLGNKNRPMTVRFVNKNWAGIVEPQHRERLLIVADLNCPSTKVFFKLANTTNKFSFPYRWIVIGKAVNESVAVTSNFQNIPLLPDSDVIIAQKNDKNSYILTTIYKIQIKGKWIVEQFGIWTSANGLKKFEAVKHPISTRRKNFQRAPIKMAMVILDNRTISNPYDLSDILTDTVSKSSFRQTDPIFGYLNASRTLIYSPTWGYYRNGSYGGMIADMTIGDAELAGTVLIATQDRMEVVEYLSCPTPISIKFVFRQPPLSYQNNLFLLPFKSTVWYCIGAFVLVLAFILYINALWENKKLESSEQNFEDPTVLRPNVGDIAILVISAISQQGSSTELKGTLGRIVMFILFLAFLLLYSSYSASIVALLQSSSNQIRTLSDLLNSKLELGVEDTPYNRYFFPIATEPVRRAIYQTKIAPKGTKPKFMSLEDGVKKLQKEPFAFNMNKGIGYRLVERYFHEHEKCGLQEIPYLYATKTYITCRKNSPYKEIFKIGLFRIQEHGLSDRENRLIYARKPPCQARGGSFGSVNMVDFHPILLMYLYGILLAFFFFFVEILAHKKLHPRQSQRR
Chain of OfurIR75/OfurIR8a (A0A0F7QED2 20-902 partner): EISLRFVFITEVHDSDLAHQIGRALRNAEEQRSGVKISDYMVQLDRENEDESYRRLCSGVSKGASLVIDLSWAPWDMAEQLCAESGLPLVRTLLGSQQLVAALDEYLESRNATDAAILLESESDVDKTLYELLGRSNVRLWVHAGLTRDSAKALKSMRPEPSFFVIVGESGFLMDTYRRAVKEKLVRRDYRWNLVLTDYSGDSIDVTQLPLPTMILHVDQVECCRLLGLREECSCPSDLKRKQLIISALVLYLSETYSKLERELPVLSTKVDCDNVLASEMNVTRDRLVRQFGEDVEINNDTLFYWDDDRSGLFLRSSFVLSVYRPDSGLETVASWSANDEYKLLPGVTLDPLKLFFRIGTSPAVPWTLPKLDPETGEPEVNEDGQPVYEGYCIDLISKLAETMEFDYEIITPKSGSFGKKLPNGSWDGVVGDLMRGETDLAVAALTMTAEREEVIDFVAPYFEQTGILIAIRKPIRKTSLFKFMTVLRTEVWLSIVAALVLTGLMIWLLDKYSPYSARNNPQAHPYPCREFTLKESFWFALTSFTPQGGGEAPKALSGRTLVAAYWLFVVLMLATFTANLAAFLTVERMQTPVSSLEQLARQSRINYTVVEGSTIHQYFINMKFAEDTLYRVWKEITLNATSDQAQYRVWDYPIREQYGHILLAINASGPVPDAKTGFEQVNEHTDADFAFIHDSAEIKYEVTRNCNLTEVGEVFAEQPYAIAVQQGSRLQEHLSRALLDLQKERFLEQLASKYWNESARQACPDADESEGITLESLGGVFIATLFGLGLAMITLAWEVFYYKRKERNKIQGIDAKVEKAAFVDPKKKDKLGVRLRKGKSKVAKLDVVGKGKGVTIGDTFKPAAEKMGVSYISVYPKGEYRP

| Compound | two-electrode voltage clamp, Xenopus oocytes [1] | two-electrode voltage clamp, Xenopus oocytes ([2]; dose series) | two-electrode voltage clamp, Xenopus oocytes [2] |
| --- | --- | --- | --- |
| CCCCCO [pentanol] | dose-dependent, with a higher sensitivity to isoamyl alcohol compared to pentanol |  |  |
| CCCCC(=O)O [pentanoic acid] |  | OfurIR75/OfurIR8a responded strongly with similar magnitudes to pentanoic acid and hexanoic acid |  |
| CCCCCCCC(=O)O [octanoic acid] |  |  | Weaker responses were elicited by heptanoic acid and octanoic acid |
| CCCCCCC(=O)O [heptanoic acid] |  |  | Weaker responses were elicited by heptanoic acid and octanoic acid |
| CCCCCC(=O)O [hexanoic acid] |  | OfurIR75/OfurIR8a responded strongly with similar magnitudes to pentanoic acid and hexanoic acid |  |
| CC(C)CCO [isoamyl alcohol] | receptors from this clade exhibited similar response profiles, with isoamyl alcohol as the primary ligand |  |  |
